Consider 26 molecules from ChEMBL document CHEMBL4382228, “Small molecules as inhibitors of PCSK9: Current status and future challenges” (Eur J Med Chem, 2019).

Assay [1] concerns the target T1, Proprotein convertase subtilisin/kexin type 9 (Homo sapiens, UniProt Q8NBP7). The experiment in a line: Binding affinity to PCSK9 (unknown origin) by SPR assay. For orientation: SPR reads the build-up and loss of mass on a sensor chip optically.
Assay [2] deals with 80S Ribosome. The experiment in a line: Binding affinity to 80S ribosome in human HuH7 cells expressing human C-terminal V5/6-His-tagged PCSK9 assessed as inhibition of PCSK9 secretion after 16 to 24 hrs by AlphaLISA method. The assay is classed as cell-based. The settings on record: huh-7. In general terms: In Alpha technology, singlet oxygen from a donor bead excites a nearby acceptor bead.

Assay [3] deals with HepG2. Put plainly: Inhibition of PCSK9 mRNA expression in human HepG2 cells after 24 hrs by SYBR Green I dye-based qRT-PCR analysis. In kind it is functional, cell-based. The settings on record: HepG2, 24 h.
The subject of assay [4] is Mus musculus. The experiment in a line: Decrease in cholesterol level in C57BL/6 mouse fed with high fat diet at 10 mg/kg, po administered daily for 5 days relative to control. In kind it is functional. Set-up: scale not given: the % may be the effect or the level left.
Assay [5] relates to HepG2. The experiment in a line: Inhibition of PCSK9 mRNA expression in human HepG2 cells by SYBR Green I dye-based qRT-PCR analysis. The assay is classed as functional, cell-based. In general terms: In qPCR the cycle at which signal appears reflects the starting amount.
Assay [6] concerns HepG2. Put plainly: Inhibition of PCSK9 mRNA expression in human HepG2 cells at 20 uM after 24 hrs by qRT-PCR analysis relative to control. The assay is classed as functional. To be noted: HepG2, 24 h.
Assay [7] relates to Hepatocyte. Put plainly: Inhibition of PCSK9 mRNA expression in mouse primary hepatocytes at 2 uM after 24 hrs relative to control. In kind it is functional.
Assay [8] relates to HepG2. The experiment in a line: Inhibition of PCSK9 mRNA expression in human HepG2 cells after 24 hrs by qRT-PCR analysis. To be noted: HepG2, 24 h. In kind it is functional, cell-based.
The test system of assay [9] is Hepatocyte. The experiment in a line: Inhibition of PCSK9 mRNA expression in mouse primary hepatocytes at 2.5 uM after 24 hrs relative to control. In kind it is functional.
In assay [10] the test system is Huh-7. Put plainly: Inhibition of PCSK9 mRNA expression in human HuH7 cells at 2 uM after 24 hrs by qRT-PCR assay relative to control. In kind it is functional. To be noted: Huh-7, 24 h.
The test system of assay [11] is Huh-7. The experiment in a line: Increase in LDLR mRNA expression in human HuH7 cells at 2 uM after 24 hrs by qRT-PCR assay relative to control. The assay is classed as functional.
The subject of assay [12] is Huh-7. Put plainly: Increase in LDLR protein expression in human HuH7 cells at 2 uM after 24 hrs by immunoblotting assay relative to control. The assay is classed as functional.
In assay [13] the target is T1, Proprotein convertase subtilisin/kexin type 9. The experiment in a line: Inhibition of wild type His-tagged PCSK9 (unknown origin) binding to recombinant LDLR-AB domain (unknown origin) after 2 hrs by fluorescence assay.
For assay [14] the target is unchanged. The experiment in a line: Inhibition of PCSK9 in human HepG2 cells assessed as increase in LDL uptake after 24 hrs by fluorescence assay. The assay is classed as cell-based.
For assay [15] the target is unchanged. Put plainly: Inhibition of human recombinant full length ProLabel-tagged PCSK9 expressed in CHO-K1 cells incubated overnight and measured after 3 days by chemiluminescence assay. In kind it is cell-based.
Assay [16] has the same target. Put plainly: Inhibition of human recombinant PCSK9 expressed in CHO-K1 cells assessed as alkaline phosphatase secretion incubated overnight and measured after 3 days by HTS assay. In kind it is cell-based.
In assay [17] the test system is CHO-K1. Put plainly: Cytotoxicity against CHOK1 cells expressing human recombinant full length ProLabel-tagged PCSK9 after overnight incubation by CellTiter blue assay. The settings on record: Cricetulus griseus. The assay is classed as cell-based.
Assay [18] deals with T1, Proprotein convertase subtilisin/kexin type 9. Put plainly: Inhibition of human recombinant full length ProLabel-tagged PCSK9 expressed in CHO-K1 cells incubated overnight and measured after 3 days by HTS assay. The assay is classed as cell-based.

Where only a bound is given, the exact number is not on record here.

T1 sequence (Q8NBP7 31-152 limits assumed): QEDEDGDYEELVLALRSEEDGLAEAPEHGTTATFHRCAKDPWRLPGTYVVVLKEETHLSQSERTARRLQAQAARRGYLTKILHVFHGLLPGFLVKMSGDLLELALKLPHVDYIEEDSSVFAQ
T1 sequence (Q8NBP7 153-692 limits assumed): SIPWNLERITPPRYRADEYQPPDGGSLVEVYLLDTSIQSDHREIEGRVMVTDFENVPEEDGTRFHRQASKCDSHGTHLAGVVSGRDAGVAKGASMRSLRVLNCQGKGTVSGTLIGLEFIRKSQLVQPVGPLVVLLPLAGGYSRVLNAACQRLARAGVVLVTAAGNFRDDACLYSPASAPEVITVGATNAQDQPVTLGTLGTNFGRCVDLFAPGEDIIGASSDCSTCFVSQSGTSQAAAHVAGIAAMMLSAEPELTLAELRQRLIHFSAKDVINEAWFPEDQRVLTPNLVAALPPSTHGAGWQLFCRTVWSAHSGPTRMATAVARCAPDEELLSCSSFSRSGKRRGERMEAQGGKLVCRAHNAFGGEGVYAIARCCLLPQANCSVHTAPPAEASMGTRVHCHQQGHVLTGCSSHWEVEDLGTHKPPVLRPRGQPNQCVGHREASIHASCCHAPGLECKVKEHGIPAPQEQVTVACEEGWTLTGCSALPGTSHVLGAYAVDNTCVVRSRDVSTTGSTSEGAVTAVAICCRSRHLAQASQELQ

For orientation: Kd means the concentration at which binding is half-saturated. On to `CC(C)C[C@H](C(=O)N1CCN([C@@H](CC(N)=O)C(=O)N[C@@H](CCCNC(=N)N)C(=O)N[C@H]2CCOC2=O)CC1)N1C(=O)N[C@@H](CC(=O)O)C1=O`, for which, in assay [1], the Kd turned out to be 24.8 µM.
Broadly, the IC50 is the point on the concentration scale where inhibition reaches its midpoint. `O=C(c1ccc(-n2nnc3cccnc32)cc1)N(c1ncccc1Cl)[C@@H]1CCCNC1`: the IC50 in assay [2] turned out to be 0.3 µM.
`COc1c2c(cc3c1-c1c(cc4c(c1OC)OCO4)C[C@H](C)[C@H](C)C3)OCO2` [SCHISANDRIN C]: the IC50 in assay [3] was determined as 3.85 µM.
In the case of `Cc1cc(C(=O)C2=C(O)C(=O)N(CCCN3CCOCC3)C2c2ccncc2)ccc1OCc1ccccc1` (configuration not stated), in assay [4], the Activity is 20 - 38%.
Consider `CC(C)C[C@@H](C(=O)N[C@H](CCCCN)C(=O)N[C@H]1CCOC1=O)N1CCN(C(=O)[C@H](CS)N2C(=O)N[C@H](CC(N)=O)C2=O)CC1`, for which binding in assay [1] was characterised by a dissociation constant (Kd) of 41.2 µM.
For the molecule `C/C=C(/C)C(=O)Oc1c2c(cc3c1-c1c(cc(OC)c(OC)c1OC)C[C@](C)(O)[C@@H](C)C3)OCO2`, the IC50 in assay [3] stood at 0.36 µM.
In the case of `Nc1ncnc2c1ncn2[C@@H]1O[C@H](CO)[C@@H](O)[C@H]1O` [ADENOSINE], the IC50 in assay [5] came out at 18.5 µM.
With `CC(C)=CCc1c(O)cc(-c2cc3ccc(O)cc3o2)cc1O` [MORACIN C], the IC50 in [3] stood at 16.8 µM.
For `COc1cc2c(c(O)c1O)COC2=O`, the IC50 in assay [5] is 7.18 µM.
As usually defined, the inhibition is the percentage by which the read-out fell short of the control. In [6], `COc1cc(O)cc2c1C(=O)[C@H](O)[C@@H](c1ccccc1O)O2` had an inhibition at 20 µM of 84.4%.
Molecule `Cc1sc2c(c1C)C(c1ccccc1)=N[C@@H](CC(=O)OC(C)(C)C)c1nnc(C)n1-2` displayed an inhibition at 2 µM in [7] greater than 90%.
Regarding `O=C(Nc1ccc(-c2nc3ccccc3o2)cc1)c1ccc(NC(=O)c2cc3ccccc3o2)cc1`, the Activity in assay [4] was 20 - 38%.
On the same count and under the same terms, next, `Cc1ccc(N2CCN(C(=O)c3ccc(NC(N)=O)cc3)C(c3ccccc3)C2)cc1Cl` (configuration not stated): 20 - 38%.
Turning to `CCN(CC)C(=O)c1ccc(NC(=O)CSc2nnc(-c3cccs3)n2C2CC2)cc1`, the Activity in [4] is reported as 20 - 38%.
Regarding `COC(=O)c1c(C)cc(O[C@@H]2O[C@H](CO)[C@@H](O)[C@H]2O)c(OC)c1O`, the concentration for half-maximal inhibition (IC50) in [5] was found to be 20.1 µM.
As a reminder, the EC50 is the concentration giving half of the maximal effect. Molecule `CN1C(=O)c2cc(NC(=O)c3ccc(C(F)(F)F)cc3)ccc2OC[C@@H]2O[C@H](CC(=O)NC3Cc4ccccc4C3)CC[C@@H]21` came in with a half-maximal effective concentration (EC50) in [8] of 0.36 µM.
Take `COc1cccc(O)c1-c1cc(=O)c2c(O)c(OC)c(OC)c(OC)c2o1` [SKULLCAPFLAVONE II]: the inhibition at 20 µM in assay [6] was 42.4%.
`COc1cc2c(cc1-c1c(C)noc1C)ncc1[nH]c(=O)n([C@H](C)c3ccccn3)c12` showed an inhibition at 2.5 µM in [9] greater than 90%.
`O=c1c(O[C@@H]2O[C@H](CO)[C@@H](O)[C@H](O)[C@H]2O)c(-c2ccc(O)c(O)c2)oc2cc(O)cc(O)c12` [ISOQUERCETIN] showed an inhibition at 2 µM in assay [10] of 20 to 30%. In addition, the Activity in [11] is 60%; in assay [12] it was 300 - 400%.
With `Cn1cccc1-c1ccc(-c2ccc(-c3ccc(-c4ccccc4)n3C)n2C)n1C`, the IC50 in assay [13] was 11.2 µM. For the same molecule, in assay [14], the concentration for a half-maximal effect (EC50) was 6.04 µM.
On to `CC(C)[C@@H](C)/C=C/[C@@H](C)[C@H]1CCC2=C3[C@@H](O)[C@@H]4O[C@@]45C[C@@H](O)CC[C@]5(C)[C@H]3CC[C@@]21C`, for which inhibition in assay [5] was half-maximal at 8.23 µM (IC50).
For `CC(=O)Nc1ccc(C(=O)N2CCN(c3ccc(C)c(Cl)c3)CC2c2ccccc2)cc1` (configuration not stated), in assay [4], the Activity was 20 - 38%.
For `COc1cc2c(c(OC)c1OC)-c1c(cc3c(c1OC)OCO3)C[C@@H](C)[C@@](C)(O)C2`, in [3], 1.1 µM corresponded to half-maximal inhibition (IC50).
The molecule `COc1cc([C@@H]2O[C@H](c3cc(O)c(OC)c(OC)c3)[C@@H](C)[C@@H]2C)ccc1O` showed an IC50 in assay [3] of 3.15 µM.
Turning to `CC(C)C[C@H](C(=O)N1CCN([C@@H](CC#N)C(=O)N[C@@H](CCCNC(=N)N)C(=O)N[C@H]2CCOC2=O)CC1)N1C(=O)N[C@@H](CC(=O)O)C1=O`, binding in assay [1] was characterised by a dissociation constant (Kd) of 35.8 µM.
Consider `COc1ccc(CCC(=O)N(c2nccc3ccccc23)[C@@H]2CCCNC2)cc1`, for which the IC50 in [15] is less than 10 µM; in assay [16] it was greater than 10 µM; in [17], greater than 10 µM; in assay [18] it was 4.8 µM.
